The source of these data is patent US11628148B2, “Nail hardening composition and method of use” (WELLA OPERATIONS US, LLC, priority 2017, dated 2023).

The test system of one data set is cow hoof samples. Briefly: Three-point bend test (flexural strength) of cow hoof samples immersed 24 hours in test solution. The conditions noted are these: for FS (flexural strength): 24 h immersion; for % Increase (flexural strength): only samples thinner than 1.8 mm. The method, then: 1. […] Pack samples in vacuum bag. 2. […] 3. […] Pack samples in vacuum bag. 4. Three-Point Bend Test for Untreated and Treated Cow Hoof Samples • Perform using a Texture Analyzer TAXT Plus from Texture Technologies. • Three point bend test is conducted until sample fracture. • Flexural strength is calculated based on force at break for each sample. Results A 3-point bend test set-up was used to measure the break force of treated and untreated cow hoof slices with thickness ranging from 0.88 mm to 2.75 mm. The flexural strength was calculated for each sample, based on sample thickness and width. For each group, the average flexural strength and the standard deviation were calculated. The p-value for the effect significance was calculated for each treated group versus the corresponding baseline value using ANOVA. Outliers were eliminated using the modified Thompson Tau method. Baseline values were determined for groups of untreated samples. Because the hypothesis is that the crosslinker reacts with thiol groups, the effect of dithiothreitol (DTT), a disulfide reducing agent, was tested as well.

Data set [1] can be described thus: Behaviour of the test solution at the highest concentration prepared. In kind it is physicochemical. The conditions noted are these: 3.5% (w/w) BMH in dimethyl sulfoxide.

Consider `NCCCCCCN` [Hexamethylene diamine, hexamethylene diamine], for which the “FS (flexural strength)” value with cow hoof samples (1% by weight hexamethylene diamine alone in ethanol (equal. to 3% H + M)) is listed as 132 N/mm2; in the data set with cow hoof samples (1.7% by weight hexamethylene diamine alone in ethanol (equal. to 5% H + M)) it was 149 N/mm2; in the data set on cow hoof samples (2.3% by weight hexamethylene diamine alone in ethanol (equal. to 7% H + M)), 122 N/mm2. The “% increase (flexural strength vs baseline)” value with cow hoof samples (1% hexamethylene diamine alone in ethanol (equal. to 3% H + M)) was 3.9%; in the data set with cow hoof samples (1.7% hexamethylene diamine alone in ethanol (equal. to 5% H + M)) it was 17.3%; with cow hoof samples (2.3% hexamethylene diamine alone in ethanol (equal. to 7% H + M)), −3.9%. Also, in the data set with cow hoof samples (HMD taken separately at 1.7%), the “Effect on flexural strength (in words)” value is given as “borderline significant strengthening effect”.

Consider `O=C1C=CC(=O)N1CCCCCCN1C(=O)C=CC1=O` [Bismaleimidohexane, bismaleimidohexane], for which the “% increase (flexural strength vs baseline)” value in the data set on cow hoof samples (1% BMH in dimethyl sulfoxide) was found to be 9.7%; in the data set with cow hoof samples (3% BMH in dimethyl sulfoxide), 8.3%. Moreover, the figures for the “FS (flexural strength)” value in the data set with cow hoof samples (1% by weight BMH in dimethyl sulfoxide) and in the data set with cow hoof samples (3% by weight BMH in dimethyl sulfoxide) were 158 N/mm2 and 156 N/mm2, respectively. Further, the “Effect on flexural strength (in words)” value in the data set with cow hoof samples (BMH at 1% and 3%) is given as “non-significant increase”. The “Observation on the solution” value in data set [1] is “Gelification”; in data set [1] (listed as BMH) it was “gelification”.

Consider `O[C@H](CS)[C@H](O)CS` (racemic) [DTT, dithiothreitol], for which the “Effect on flexural strength (in words)” value in the data set on cow hoof samples (disulfide reducing agent, results not shown) was “no significant effect”.

Take “Hexamethylene diamine/Maleic acid [Hexamethylene diamine + Maleic acid]”: the “% increase (flexural strength vs baseline)” value is recorded as 13.4% with cow hoof samples (1% HMD + MA in ethanol, all samples); 17.3% in the data set on cow hoof samples (3% HMD + MA in ethanol, all samples); 17.3% in the data set on cow hoof samples (5% HMD + MA in ethanol, all samples); 3.9% in the data set with cow hoof samples (7% HMD + MA in ethanol, all samples). For the same compound, the entries for the “% Increase (flexural strength)” value in the data set on cow hoof samples (1% HMD + MA), with cow hoof samples (3% HMD + MA) and in the data set with cow hoof samples (5% HMD + MA) were 20.2%, 24.2% and 28.2%, respectively. The “FS (flexural strength)” value with cow hoof samples (1% by weight HMD + MA (1:2) in ethanol, all samples) was found to be 144 N/mm2; in the data set on cow hoof samples (3% by weight HMD + MA (1:2) in ethanol, all samples), 149 N/mm2; with cow hoof samples (5% by weight HMD + MA (1:2) in ethanol, all samples), 149 N/mm2; in the data set with cow hoof samples (7% by weight HMD + MA (1:2) in ethanol, all samples) it was 132 N/mm2. Further, the “Effect on flexural strength (in words)” value in the data set on cow hoof samples (HMD + MA (1:2 ratio) at 3% and 5% (w/w)) is on record as “significant increase”.

For the compound `O=C(O)/C=C\C(=O)O` [Maleic Acid, maleic acid], the “FS (flexural strength)” value with cow hoof samples (3.3% by weight maleic acid alone in ethanol (equ. to 5% H + M)) was found to be 131 N/mm2. Besides, in the data set with cow hoof samples (3.3% maleic acid alone in ethanol (equ. to 5% H + M)), the “% increase (flexural strength vs baseline)” value is reported as 3.1%. The “Effect on flexural strength (in words)” value with cow hoof samples (MA taken separately) was “does not seem to have any significant effect”.

`C=O` [Formaldehyde, formaldehyde]: the “FS (flexural strength)” value was found to be 141 N/mm2 with cow hoof samples (1% by weight formaldehyde in ethanol, all samples); 132 N/mm2 with cow hoof samples (3% by weight formaldehyde in ethanol, all samples); 134 N/mm2 in the data set on cow hoof samples (5% by weight formaldehyde in ethanol, all samples). In addition, the “% increase (flexural strength vs baseline)” value in the data set with cow hoof samples (1% formaldehyde in ethanol, all samples) is listed as 20.5%; in the data set on cow hoof samples (3% formaldehyde in ethanol, all samples), 12.8%; with cow hoof samples (5% formaldehyde in ethanol, all samples), 14.5%. Further, the “% Increase (flexural strength)” value in the data set on cow hoof samples (1% formaldehyde) is 22.2%; in the data set on cow hoof samples (3% formaldehyde) it was 15.4%; in the data set with cow hoof samples (5% formaldehyde), 20.5%.
